Data on 3 substances can be found in US7888293B2, “Compositions and methods relating to orthogonal ribosome mRNA pairs” (priority 2005, dated 2011).

Common to all, as to assay type: cell-based, E. coli
One data set has as its system O-mRNA-Aα and O-mRNA-Cα. As to the kind of experiment: Boolean OR gate, β-galactosidase FDG fluorescence. Conditions: OR gate, DH10B.
The test system of another data set is O-mRNA-Cα and O-mRNA-Aω. As to the kind of experiment: Boolean AND gate, β-galactosidase FDG fluorescence. Conditions: BW26444 cells. The procedure: The AND function was created in BW26444 cells, which are deleted in lacZ. Their genotype is (Δ(araD-araB)567, Δ(lacA-lacZ)519(::FRT), laclp-4000(lacl^Q), λ^−, rpoS396(Am), rph-1, Δ(rhaD-rhaB)568, hsdR514). Heat shock competent BW26444 cells containing the logic gate plasmid were prepared by standard CaCl2 treatment, and combinations of rRNA inputs accessed by double transformation. Transformed cells were recovered in SOB with 2% glucose and transferred to LB agar containing 2% glucose, 50 μg ml^−1 ampicillin, 25 μg ml^−1 kanamycin, 12.5 μg ml^−1 tetracycline and incubated (16 h, 37° C.). Individual colonies were transferred to each well of a 96 well culture block containing 100 μl of media (LB containing 2% glucose, 50 μg ml^−1 ampicillin, 25 μg ml^−1 kanamycin, 12.5 μg ml^−1 tetracycline) and grown overnight. Cells were pelleted by centrifugation (3000 g, 5 min) and resuspended in 1 ml of LB containing 50 μg ml^−1 ampicillin, 25 μg ml^−1 kanamycin, 12.5 μg ml^−1 tetracycline. After a further 1 h incubation (37° C., 250 rpm) cells were supplemented with isopropyl-β-D-thiogalactopyranoside (to 1 mM), and incubated (37° C., 250 rpm, 4 h) and the OD600 measured. […] An equal volume of 2× buffer Z (120 mM Na2HPO4, 80 mM NaH2PO4, 20 mM KCl, 2 mM MgSO4, 100 mM β-mercaptoethanol) containing fluorescein di-β-D-galactopyranoside (Molecular Probes, final concentration 0.5 mM) was added and incubated (22° C.) until a strong fluorescent signal was detected (approximately 5 min). […] Fluorescence was detected using a Spectra Max Gemini XS (Molecular Devices), with excitation at […] and emission detection at 450 nm.
Fluorescence was normalized for cell density and time of incubation with β-galactosidase substrate, using the equation: Fluorescence=1000×(raw fluorescence450 nm)/(t.V.OD600) Where (t) is time of incubation in seconds and (V) is the volume of culture used. […]
Cells containing a plasmid encoding both O-mRNA-Cα and O-mRNA-Aω were programmed with either wild-type rRNA, rRNA-A, rRNA-C or rRNA-C and rRNA-A together, and the conversion of FDG to fluorescein measured. […]

A further data set has as its system O-mRNA-Ccat. As to the kind of experiment: Translation of cat from O-mRNA-Ccat, chloramphenicol resistance, compatible rRNA plasmids. The source says:
The RSF rRNA expression plasmid was derived from the previously described Col E1 expression plasmid (pTrc16S23S; Rackham & Chin, 2005, Nature Chem. Biol. 1: 159-166). The RSF1030 replicon, containing a kanamycin resistance gene, was amplified by PCR from pRSFDuet-1 (Novagen) using the oligonucleotides 5′-[…]-3′(SEQ ID NO: 120) and 5′-[…]-3′ (SEQ ID NO: 121). The resulting PCR product was digested with Kpn I and Sph I and used to replace the Kpn I, Sph I replicon-containing portion of pTrc 16S23S ribosome plasmids. CAT activity assays for orthogonal ribosome activity were performed as described in Rackham & Chin, 2005, supra).
One vector for rRNA production has a ColE1 origin of replication and an ampicillin resistance gene and is present at about 50 copies per cell. A second vector for rRNA production has an RSF origin of replication and a kanamycin resistance gene, and is present at about 100 copies per cell. […] To ascertain the effect of plasmid flanking sequences and plasmid copy number on the activity of the O-ribosomes incorporating plasmid-encoded rRNA, the translation of the chloramphenicol acetyl transferase gene (cat) from O-mRNA-Ccat (a version of cat with the 5′ orthogonal ribosome binding site C) was measured. […]

For “rRNA-A: O-rRNA-A, SEQ ID NO:125, orthogonal 16S rRNA cognate to O-mRNA-A; probably rRNA-2 (AUCACUGUGGUA; expressed or natural sequence)”, in the data set on O-mRNA-Aα and O-mRNA-Cα, the “fluorescence signal above background” value is reported as 10 fold. The “fluorescence (conversion of FDG to fluorescein)” value in the data set with O-mRNA-Cα and O-mRNA-Aω is listed as “low fluorescence”.

In the case of “rRNA-C: O-rRNA-C, SEQ ID NO:129, orthogonal 16S rRNA cognate to O-mRNA-C; probably rRNA-9 (AUCAUGGGAUUA; expressed or natural sequence)”, in the data set with O-mRNA-Aα and O-mRNA-Cα, the “fluorescence signal above background” value was found to be 15 fold. In addition, the “fluorescence (conversion of FDG to fluorescein)” value in the data set with O-mRNA-Cα and O-mRNA-Aω was “low fluorescence”. For the same substance, the results for the IC50 chloramphenicol resistance in the data set on O-mRNA-Ccat (ColE1 plasmid) and in the data set with O-mRNA-Ccat (RSF plasmid) were 150 mg/L and 250 mg/L, respectively.

In the case of “wild-type rRNA: wild-type 16S rRNA, SEQ ID NO:116, plasmid-encoded control input (AUCACCUCCUUA; listed as Escherichia coli) [reference compound]”, in the data set on O-mRNA-Aα and O-mRNA-Cα, the fluorescence entry is recorded as “comparable to that observed in the absence of plasmid-encoded a fragment”. Further, the “fluorescence (conversion of FDG to fluorescein)” value with O-mRNA-Cα and O-mRNA-Aω was “low fluorescence”.
